Columns and labels:
Format in all cases: biochemical
PIP4K2A [1] = biological target: T1, PIP4K2A (Homo sapiens, UniProt P48426); assay: Kinase Assay PIP4K2 A (Table 2); set-up: 4 nM PIP4K2A (full length protein, SignalChem); purchased SignalChem; conditions: compounds listed under IC50 bins
T1 sequence (P48426 1-406): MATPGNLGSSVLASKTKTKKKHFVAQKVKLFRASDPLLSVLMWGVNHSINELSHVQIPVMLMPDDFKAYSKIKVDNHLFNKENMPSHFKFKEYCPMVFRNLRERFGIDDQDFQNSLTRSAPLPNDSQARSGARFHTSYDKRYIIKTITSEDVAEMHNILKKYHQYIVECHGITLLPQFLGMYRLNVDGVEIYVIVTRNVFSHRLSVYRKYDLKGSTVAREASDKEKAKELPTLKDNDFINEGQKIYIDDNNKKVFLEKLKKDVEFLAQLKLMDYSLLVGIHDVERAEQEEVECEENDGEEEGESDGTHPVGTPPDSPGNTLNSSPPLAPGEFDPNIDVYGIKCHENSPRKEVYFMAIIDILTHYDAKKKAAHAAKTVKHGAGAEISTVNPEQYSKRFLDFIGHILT
In short: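 ADP-Glo luminescent read-out after 1 h room-temperature kinase reaction, started with 60 μM ATP solution following 15 min compound pre-incubation. Enzyme/substrate mix: 4 nM full-length PIP4K2A plus 100 μM PI(5)P diC8; buffer MOPS pH 7.2 with 25 mM MgCl2 and Tween 20. IC50 from 10-point, 3-fold titrations normalized to DMSO.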

PIP4K2B = biological target: T2, PIP4K2B (Homo sapiens, UniProt P78356); assay: Trans-FI P kinase assay PIP4K2B (Table 4); conditions: compounds listed under IC50 bins; read-out: Trans-FI P kinase assays: PIP4K2B IC50
T2 construct: made in house; host or cells: E. coli
T2 sequence (P78356 1-416): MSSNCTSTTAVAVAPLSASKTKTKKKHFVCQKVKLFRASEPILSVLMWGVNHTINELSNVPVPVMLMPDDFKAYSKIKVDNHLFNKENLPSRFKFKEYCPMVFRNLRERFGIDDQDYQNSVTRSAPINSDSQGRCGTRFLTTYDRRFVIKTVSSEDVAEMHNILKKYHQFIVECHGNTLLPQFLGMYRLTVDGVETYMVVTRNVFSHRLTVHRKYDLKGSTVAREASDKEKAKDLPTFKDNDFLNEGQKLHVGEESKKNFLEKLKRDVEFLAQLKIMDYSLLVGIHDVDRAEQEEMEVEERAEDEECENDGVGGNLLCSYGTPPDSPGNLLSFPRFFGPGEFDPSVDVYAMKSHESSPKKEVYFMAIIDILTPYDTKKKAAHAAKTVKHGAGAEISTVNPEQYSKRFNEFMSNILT
In short: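 Transcreener FI detection (Ex 584/Em 623) of GDP, converted via calibration curve, gives IC50 from residual activity versus log concentration (highest 4.8 μM). Reaction: 80 μM PI5P plus DOPE carrier, 100 μM GTP, 5 nM GST-tagged enzyme, pH 7.3 HEPES with MgCl2 and 5% DMSO, 2 h after 1 h enzyme-compound preincubation at 27° C.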

PIP4K2A [2] = biological target: T1, PIP4K2A; assay: ADP-glo kinase assay PIP4K 2A (Table 3); set-up: made in house; host or cells: E. coli; conditions: compounds listed under IC50 bins
In short: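 ADP-Glo luminescence detected ADP after 1 h RT reaction started by ATP (60 μM solution) on full-length PIP4K2A (4 nM in mix) and PI(5)P diC8 (100 μM in mix), preceded by 15 min enzyme-compound preincubation in MOPS pH 7.2/25 mM MgCl2. Percent inhibition versus DMSO over 10 concentrations fitted for IC50.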

IC50 (PIP4K2A [1]) [nM] | IC50 (PIP4K2B) [nM] | IC50 (PIP4K2A [2]) [nM] | Structure (SMILES)
1 to 10 | 10 to 100 | 1 to 10 | CN(C)C(=O)c1ccc(-c2ccc(Nc3cncc(NC(=O)CCc4cccc(NC(=O)CCCCCN)c4)c3)nc2)cc1 [Example 111, 4-(6-((5-(3-(3-(6-aminohexanamido)phenyl)propanamido)pyridin-3-yl)amino)pyridin-3-yl)-N,N-dimethylbenzamide]
100 to 1000 | > 1000 | 100 to 1000 | CN(C)C/C=C/C(=O)NCCCCCC(=O)Nc1cccc(CCC(=O)Nc2cncc(Nc3ccc(-c4ccc(C(=O)N(C)C)cc4)cn3)c2)c1 [Example 112, (E)-4-(6-((5-(3-(3-(6-(4-(dimethylamino)but-2-enamido)hexanamido)phenyl)propanamido)pyridin-3-yl)amino)pyridin-3-yl)-N,N-dimethylbenzamide]
10 to 100 | 10 to 100 | 10 to 100 | CN(C)C(=O)c1ccc(-c2ccc(Nc3cncc(NC(=O)c4cccc(NC(=O)CCOCCOCCN)c4)c3)nc2)cc1 [Example 113, 4-(6-((5-(3-(3-(2-(2-aminoethoxy)ethoxy)propanamido)benzamido)pyridin-3-yl)amino)pyridin-3-yl)-N,N-dimethylbenzamide]
10 to 100 | 10 to 100 | 100 to 1000 | CN(C)C/C=C/C(=O)NCCOCCOCCC(=O)Nc1cccc(C(=O)Nc2cncc(Nc3ccc(-c4ccc(C(=O)N(C)C)cc4)cn3)c2)c1 [Example 114, (E)-N,N-dimethyl-4-(6-((5-(3-(2-methyl-6-oxo-10,13-dioxa-2,7-diazahexadec-4-en-16-amido)benzamido)pyridin-3-yl)amino)pyridin-3-yl)benzamide]
10 to 100 | 10 to 100 | 10 to 100 | CN(C)C(=O)c1ccc(-c2ccc(Nc3cncc(NC(=O)c4ccc(N)cc4)c3)nc2)cc1 [Example 116, 4-(6-((5-(4-aminobenzamido)pyridin-3-yl)amino)pyridin-3-yl)-N,N-dimethylbenzamide]
1 to 10 | 10 to 100 | 10 to 100 | CN(C)C/C=C/C(=O)Nc1ccc(C(=O)Nc2cncc(Nc3ccc(-c4ccc(C(=O)N(C)C)cc4)cn3)c2)cc1 [Example 117, (E)-4-(6-((5-(4-(4-(dimethylamino)but-2-enamido)benzamido)pyridin-3-yl)amino)pyridin-3-yl)-N,N-dimethylbenzamide]
10 to 100 | 10 to 100 | 10 to 100 | CN(C)C(=O)c1ccc(-c2ccc(Nc3cncc(NC(=O)CCc4ccc(N)cc4)c3)nc2)cc1 [Example 118, 4-(6-((5-(3-(4-aminophenyl)propanamido)pyridin-3-yl)amino)pyridin-3-yl)-N,N-dimethylbenzamide]
1 to 10 | 10 to 100 | 10 to 100 | CN(C)C/C=C/C(=O)Nc1ccc(CCC(=O)Nc2cncc(Nc3ccc(-c4ccc(C(=O)N(C)C)cc4)cn3)c2)cc1 [Example 119, (E)-4-(6-((5-(3-(4-(4-(dimethylamino)but-2-enamido)phenyl)propanamido)pyridin-3-yl)amino)pyridin-3-yl)-N,N-dimethylbenzamide]
10 to 100 | 10 to 100 | 100 to 1000 | COC(=O)Nc1cncc(Nc2ccc(-c3ccc(C(=O)N(C)C)cc3)cn2)c1 [Example 120, methyl(5-((5-(4-(dimethylcarbamoyl)phenyl)pyridin-2-yl)amino)pyridin-3-yl)carbamate]
10 to 100 | 10 to 100 | 10 to 100 | CN(C)C(=O)c1ccc(-c2ccc(Nc3cncc(NC(=O)c4ccccc4)c3)nc2)cc1 [Example 121, 4-(6-((5-benzamidopyridin-3-yl)amino)pyridin-3-yl)-N,N-dimethylbenzamide]
10 to 100 | 10 to 100 | 100 to 1000 | CN(C)C(=O)c1ccc(-c2ccc(Nc3cncc(NC(=O)CC#N)c3)nc2)cc1 [Example 122, 4-(6-((5-(2-cyanoacetamido)pyridin-3-yl)amino)pyridin-3-yl)-N,N-dimethylbenzamide]
10 to 100 | 10 to 100 | 100 to 1000 | CN(C)C(=O)c1ccc(-c2ccc(Nc3cncc(NC(=O)Cc4ccccc4)c3)nc2)cc1 [Example 123, N,N-dimethyl-4-(6-((5-(2-phenylacetamido)pyridin-3-yl)amino)pyridin-3-yl)benzamide]
10 to 100 | 10 to 100 | 10 to 100 | CNC(=O)Nc1cncc(Nc2ccc(-c3ccc(C(=O)N(C)C)cc3)cn2)c1 [Example 124, N,N-dimethyl-4-(6-((5-(3-methylureido)pyridin-3-yl)amino)pyridin-3-yl)benzamide]
100 to 1000 | 10 to 100 | 100 to 1000 | CN(C)CC(=O)Nc1cncc(Nc2ccc(-c3ccc(C(=O)N(C)C)cc3)cn2)c1 [Example 125, 4-(6-((5-(2-(dimethylamino)acetamido)pyridin-3-yl)amino)pyridin-3-yl)-N,N-dimethylbenzamide]
10 to 100 | 10 to 100 | 100 to 1000 | CN(C)C(=O)c1ccc(-c2ccc(Nc3cncc(NC(=O)C4CCOCC4)c3)nc2)cc1 [Example 126, N-(5-((5-(4-(dimethylcarbamoyl)phenyl)pyridin-2-yl)amino)pyridin-3-yl)tetrahydro-2H-pyran-4-carboxamide]
10 to 100 | 10 to 100 | 10 to 100 | CN(C)C(=O)c1ccc(-c2ccc(Nc3cncc(NS(C)(=O)=O)c3)nc2)cc1 [Example 127, N,N-dimethyl-4-(6-((5-(methylsulfonamido)pyridin-3-yl)amino)pyridin-3-yl)benzamide]
10 to 100 | 10 to 100 | 100 to 1000 | CN(C)C(=O)c1ccc(-c2ccc(Nc3cncc(NC(=O)c4ccccn4)c3)nc2)cc1 [Example 128, N-(5-((5-(4-(dimethylcarbamoyl)phenyl)pyridin-2-yl)amino)pyridin-3-yl)picolinamide]
10 to 100 | 10 to 100 | 100 to 1000 | CN(C)C(=O)c1ccc(-c2ccc(Nc3cncc(NC(=O)c4cccnc4)c3)nc2)cc1 [Example 129, N-(5-((5-(4-(dimethylcarbamoyl)phenyl)pyridin-2-yl)amino)pyridin-3-yl)nicotinamide]
10 to 100 | 10 to 100 | 100 to 1000 | CN(C)C(=O)c1ccc(-c2ccc(Nc3cncc(NC(=O)c4ccncc4)c3)nc2)cc1 [Example 130, N-(5-((5-(4-(dimethylcarbamoyl)phenyl)pyridin-2-yl)amino)pyridin-3-yl)isonicotinamide]
1 to 10 | 10 to 100 | 10 to 100 | CN(C)C(=O)c1ccc(-c2ccc(Nc3cncc(NC(=O)c4ccnc(N)c4)c3)nc2)cc1 [Example 131, 2-amino-N-(5-((5-(4-(dimethylcarbamoyl)phenyl)pyridin-2-yl)amino)pyridin-3-yl)isonicotinamide]
1 to 10 | 10 to 100 | 10 to 100 | CN(C)C(=O)c1ccc(-c2ccc(Nc3cncc(NC(=O)c4ccc5c(c4)COB5O)c3)nc2)cc1 [Example 132, N-(5-((5-(4-(dimethylcarbamoyl)phenyl)pyridin-2-yl)amino)pyridin-3-yl)-1-hydroxy-1,3-dihydrobenzo[c][1,2]oxaborole-5-carboxamide]

Source: patent US11667651B2, “Aminopyridine derivatives as phosphatidylinositol phosphate kinase inhibitors” (HiberCell, Inc., priority 2017, dated 2023)
